For the experiment, the system named is human KRAS G12C mutated cell line MIA PaCa-2. The experiment is described as follows: KRas G12C in vitro inhibitory activity: cell proliferation, CellTiter-Glo. In kind it is cell-based.
Description: The present example evaluates the ability of compounds provided herein to inhibit proliferation of KRAS mutant cells.
The inhibitory effect on cell proliferation was investigated in the human KRAS G12C mutated cell line MIA PaCa-2 (Yunis et al., 1977, Int. J. Cancer 19(1):128-135; ATCC catalog no. CRL-1420). Cells were maintained in RPMI-1640 medium (ThermoFisher catalog no. 61870036) supplemented with 10% of Heat Inactivated FBS (ThermoFisher catalog no. A31605) and 1% Pen-Strep (ThermoFisher catalog no. 10378016) and cultured at 37° C. in a humidified incubator with 5% CO2. Cells were grown by adhering to culture flasks, and maintained at 70%-80% confluency.
ATP is present in all metabolically active cells and is considered as a marker for viable cells. The number of metabolically active live cells in culture was determined using the CellTiter-Glo kit (Promega catalog no. G7572), an ATP monitoring system based on the production of luminescence by the reaction of ATP with added UltraGlo® recombinant luciferase (Kawano et al., 2016, PLOS One, 8; 11(7):e0158888), according to the supplier's experimental recommendations. The cell proliferation assay was based on a 96 well plate format.
Test compounds were dissolved at 10 mM in DMSO (Sigma catalog no. D8418; purity >99.9%) and stored at −20° C. Eight concentrations of test compound were assessed in duplicate in an individual test occasion in parallel in the selected cell lines. MRTX-849 and AMG-510 were used as reference compounds and tested in duplicate at eight concentrations. 100% of proliferation is represented by the untreated cells (0.2% DMSO).
On the day of the experiment (TO), cells were detached with TrypLE (ThermoFisher catalog no. 12604054), quantified using the cell viability analyser NucleoCounter (Chemometec NC-200) and resuspended in fresh medium at a cell density of about 5000 cells per 200 μL medium. 200 μL of cell suspension were added to each well of a 96 well plate.
Two hours after seeding cells, compounds were added at desired concentrations using a D300e compound dispenser (Life Sciences Tecan D300) with shaking after each compound addition. Assay plates were incubated at 37° C. in a humidified incubator with 5% CO2.
(§1) To measure 3 day inhibition of cell proliferation on day 3 (T3), assay plates were equilibrated to room temperature for approximately 15 min, and the Promega CellTiterGlo® reagent was added at 40 μL/well. Contents were mixed for 5 min on an orbital shaker to induce cell lysis, and then incubated at room temperature for an additional 10 min in the dark to stabilize the luminescent signal. Luminescence was read using a GloMax GM300 plate reader (Promega) using the luminescence for 96 well plate standard protocol.
as §1, with “measure 7” for “measure 3”, “(T3), 150 μL of growth media was removed from each well of the assay plates and replaced with 150 uL fresh growth media, and fresh compounds added using a D300e compound dispenser (Life Sciences Tecan D300) at desired concentrations with shaking between each compound addition. Assay plates were incubated at 37° C. in a humidified incubator with 5% CO2. On day 7 (T7)” for “(T3),”
Data was expressed as % of inhibition compared to the 0.2% DMSO negative no drug control, and is calculated as follows: % inhibition=100−[(RLU sample)×100/(RLU average controls*)], where * indicates the average for 0.2% DMSO.
Results were analyzed by GraphPad (Prism) and IC50 values were calculated by non-linear regression using four parameter-logistic equation. […]
For orientation: Cellular ATP, detected with luciferase, serves as a proxy for viable cell number.

Setting [1] is: Homo sapiens, MIA PaCa-2, 72 h, 3 day inhibition of cell proliferation, CellTiter-Glo luminescence, read-out: MIA PaCa-2 Day 3 IC50.

Like-named read-outs stand apart in the source and are kept apart here.

For orientation: IC50 means the concentration needed to halve the response being measured.

In the case of `CCn1c(-c2cccnc2[C@H](C)OC)c2c3cc(ccc31)-c1cccc(c1)C[C@H](NC(=O)[C@H](C(C)C)N(C)C(=O)[C@H]1CCN(C(=O)C#CCN3CCOCC3)C1)C(=O)N1CCC[C@H](C1)C(=O)OCC(C)(C)C2` (atropisomer, axis not shown) [Compound 2, (3S)—N-((2S)-1-(((6^3R,4S)-1^1-ethyl-1^2-(2-((S)-1-methoxyethyl)pyridin-3-yl)-10,10-dimethyl-5,7-dioxo-1^1H-8-oxa-1(5,3)-indola-6(1,3)-piperidina-2(1,3)-benzenacycloundecaphane-4-yl)amino)-3-methyl-1-oxobutan-2-yl)-N-methyl-1-(4-morpholinobut-2-ynoyl)pyrrolidine-3-carboxamide], the half-maximal inhibitory concentration (IC50) was more than 100 nM (7 day inhibition of cell proliferation, medium and compound renewed on day 3, CellTiter-Glo luminescence, read-out: MIA PaCa-2 Day 7 IC50); more than 100 nM under setting [1].

As for `CCn1c(-c2cccnc2[C@H](C)OC)c2c3cc(ccc31)-c1cccc(c1)C[C@H](NC(=O)[C@H](C(C)C)N(C)C(=O)[C@H]1CCN(C/C=C/C(=O)N(C)C)C1)C(=O)N1CCC[C@H](N1)C(=O)OCC(C)(C)C2` (atropisomer, axis not shown) [Compound 101, (3S)-1-((E)-4-(dimethylamino)-4-oxobut-2-en-1-yl)-N-((2S)-1-(((6^3S,4S)-1^1-ethyl-1^2-(2-((S)-1-methoxyethyl)pyridin-3-yl)-10,10-dimethyl-5,7-dioxo-6^1,6^2,6^3,6^4,6^5,6^6-hexahydro-1^1H-8-oxa-1(5,3)-indola-6(1,3)-pyridazina-2(1,3)-benzenacycloundecaphane-4-yl)amino)-3-methyl-1-oxobutan-2-yl)-N-methylpyrrolidine-3-carboxamide], the IC50 runs as follows: under setting [1], 10 to 100 nM; (Homo sapiens, MIA PaCa-2, 7 day inhibition of cell proliferation, medium and compound renewed on day 3, CellTiter-Glo luminescence, read-out: MIA PaCa-2 Day 7 IC50) 10 to 100 nM.

`CCn1c(-c2cccnc2[C@H](C)OC)c2c3cc(ccc31)-c1cccc(c1)C[C@H](NC(=O)[C@H](C(C)C)N(C)C(=O)[C@H]1CCN(C(=O)C#CCN(C)C)C1)C(=O)N1CC[C@@H](C1)C(=O)OCC(C)(C)C2` (atropisomer, axis not shown) [Compound 102, (3S)-1-(4-(dimethylamino)but-2-ynoyl)-N-((2S)-1-(((6^3S,4S)-1^1-ethyl-1^2-(2-((S)-1-methoxyethyl)pyridin-3-yl)-10,10-dimethyl-5,7-dioxo-1^1H-8-oxa-1(5,3)-indola-6(1,3)-pyrrolidina-2(1,3)-benzenacycloundecaphane-4-yl)amino)-3-methyl-1-oxobutan-2-yl)-N-methylpyrrolidine-3-carboxamide]: under setting [1], the IC50 is more than 100 nM.

`CCn1c(-c2cccnc2[C@H](C)OC)c2c3cc(ccc31)-c1cccc(c1)C[C@H](NC(=O)[C@H](C(C)C)N(C)C(=O)[C@H]1CCN(C(=O)C#CCN(C)C)C1)C(=O)N1CC[C@H](C1)C(=O)OCC(C)(C)C2` (atropisomer, axis not shown) [Compound 103, (3S)-1-(4-(dimethylamino)but-2-ynoyl)-N-((2S)-1-(((6^3R,4S)-1^1-ethyl-1^2-(2-((S)-1-methoxyethyl)pyridin-3-yl)-10,10-dimethyl-5,7-dioxo-1^1H-8-oxa-1(5,3)-indola-6(1,3)-pyrrolidina-2(1,3)-benzenacycloundecaphane-4-yl)amino)-3-methyl-1-oxobutan-2-yl)-N-methylpyrrolidine-3-carboxamide]: the IC50 under setting [1] is more than 100 nM.

`CCn1c(-c2cccnc2[C@H](C)OC)c2c3cc(ccc31)-c1cccc(c1)C[C@H](NC(=O)[C@H](C(C)C)N(C)C(=O)C1CCN(CC#CC(=O)N(C)C)CC1)C(=O)N1CCC[C@H](N1)C(=O)OCC(C)(C)C2` (atropisomer, axis not shown) [Compound 109, 1-(4-(dimethylamino)-4-oxobut-2-yn-1-yl)-N-((2S)-1-(((6^3S,4S)-1^1-ethyl-1^2-(2-((S)-1-methoxyethyl)pyridin-3-yl)-10,10-dimethyl-5,7-dioxo-6^1,6^2,6^3,6^4,6^5,6^6-hexahydro-1^1H-8-oxa-1(5,3)-indola-6(1,3)-pyridazina-2(1,3)-benzenacycloundecaphane-4-yl)amino)-3-methyl-1-oxobutan-2-yl)-N-methylpiperidine-4-carboxamide]: the 50% inhibitory concentration (IC50) under setting [1] lay in the range of 1 to 10 nM.

For the molecule `CCn1c(-c2cccnc2[C@H](C)OC)c2c3cc(ccc31)-c1cccc(c1)C[C@H](NC(=O)[C@H](C(C)C)N(C)C(=O)[C@H]1CCN(C/C=C/C(=O)N3CC(F)C3)C1)C(=O)N1CCC[C@H](N1)C(=O)OCC(C)(C)C2` (atropisomer, axis not shown) [Compound 110, (3S)—N-((2S)-1-(((6^3S,4S)-1^1-ethyl-1^2-(2-((S)-1-methoxyethyl)pyridin-3-yl)-10,10-dimethyl-5,7-dioxo-6^1,6^2,6^3,6^4,6^5,6^6-hexahydro-1^1H-8-oxa-1(5,3)-indola-6(1,3)-pyridazina-2(1,3)-benzenacycloundecaphane-4-yl)amino)-3-methyl-1-oxobutan-2-yl)-1-((E)-4-(3-fluoroazetidin-1-yl)-4-oxobut-2-en-1-yl)-N-methylpyrrolidine-3-carboxamide], the 50% inhibitory concentration (IC50) under setting [1] was less than 1 nM.

Regarding `CCn1c(-c2cccnc2[C@H](C)OC)c2c3cc(ccc31)-c1csc(n1)C[C@H](NC(=O)[C@H](C(C)C)N(C)C(=O)[C@H]1CCN(C/C=C/C(=O)N(C)C)C1)C(=O)N1CCC[C@H](N1)C(=O)OCC(C)(C)C2` (atropisomer, axis not shown) [Compound 111, (3S)-1-((E)-4-(dimethylamino)-4-oxobut-2-en-1-yl)-N-((2S)-1-(((6^3S,4S,Z)-1^1-ethyl-1^2-(2-((S)-1-methoxyethyl)pyridin-3-yl)-10,10-dimethyl-5,7-dioxo-6^1,6^2,6^3,6^4,6^5,6^6-hexahydro-1^1H-8-oxa-2(4,2)-thiazola-1(5,3)-indola-6(1,3)-pyridazinacycloundecaphane-4-yl)amino)-3-methyl-1-oxobutan-2-yl)-N-methylpyrrolidine-3-carboxamide], under setting [1], the IC50 is 10 to 100 nM.

On to `CCn1c(-c2cccnc2[C@H](C)OC)c2c3cc(ccc31)-c1csc(n1)C[C@H](NC(=O)[C@H](C(C)C)N(C)C(=O)[C@H]1CCN(CC#CC(=O)N(C)C)C1)C(=O)N1CCC[C@H](N1)C(=O)OCC(C)(C)C2` (atropisomer, axis not shown) [Compound 113, (3S)-1-(4-(dimethylamino)-4-oxobut-2-yn-1-yl)-N-((2S)-1-(((6^3S,4S,Z)-1^1-ethyl-1^2-(2-((S)-1-methoxyethyl)pyridin-3-yl)-10,10-dimethyl-5,7-dioxo-6^1,6^2,6^3,6^4,6^5,6^6-hexahydro-1^1H-8-oxa-2(4,2)-thiazola-1(5,3)-indola-6(1,3)-pyridazinacycloundecaphane-4-yl)amino)-3-methyl-1-oxobutan-2-yl)-N-methylpyrrolidine-3-carboxamide], for which the IC50 under setting [1] was less than 1 nM.

On to `CCn1c(-c2cccnc2[C@H](C)OC)c2c3cc(ccc31)-c1cccc(c1)C[C@H](NC(=O)[C@H](C(C)C)N(C)C(=O)[C@H]1CCN(C/C=C/C(=O)N3CC(F)(F)C3)C1)C(=O)N1CCC[C@H](N1)C(=O)OCC(C)(C)C2` (atropisomer, axis not shown) [Compound 115, (3S)-1-((E)-4-(3,3-difluoroazetidin-1-yl)-4-oxobut-2-en-1-yl)-N-((2S)-1-(((6^3S,4S)-1^1-ethyl-1^2-(2-((S)-1-methoxyethyl)pyridin-3-yl)-10,10-dimethyl-5,7-dioxo-6^1,6^2,6^3,6^4,6^5,6^6-hexahydro-1^1H-8-oxa-1(5,3)-indola-6(1,3)-pyridazina-2(1,3)-benzenacycloundecaphane-4-yl)amino)-3-methyl-1-oxobutan-2-yl)-N-methylpyrrolidine-3-carboxamide], for which the IC50 under setting [1] was less than 1 nM.

Values taken from patent US20250066386A1, “INHIBITORS OF KRAS” (BIOMEA FUSION, INC., priority 2022, published 2025).
